Assay results: patent EP3907227A1, “TRILOBINE DERIVATIVES AND THEIR USE THEREOF IN THE TREATMENT OF MALARIA” (Institut Pasteur, priority 2020, dated 2021)
Where two headings read alike, the source gives them in different places.

Assays:
[1] = system: P. falciparum NF54 (drug-sensitive line); experiment: Inhibition of proliferation of asynchronous asexual cultures (SYBR Green I based assay, 72h); type: cell-based; conditions: for IC50: SYBR Green I, read-out: Malaria CI50
Method: Compounds were provided at a concentration of 10 mM in DMSO.
P. falciparum parasite are cultured using standard protocol (Trager and Jensen, Science 1976, 193(4254), 673-675). Briefly, parasites are cultured at 4% hematocrit (O+ human blood, Etablissement Français du Sang, France) in RPMI1640 complemented with 0.1% Albumax I, HEPES buffer, hypoxanthine, and gentamycin. They are incubated at 37°C under an atmosphere of 5% CO2 and 5% O2.
Compounds of the invention were assayed for a first screen at 5µM in duplicate against asynchronous asexual cultures of P. falciparum NF54 (drug-sensitive line) containing mostly rings (2% hematocrit. 0.5% starting parasitemia). Plates were incubated for 72h at 37°C under a reduced oxygen atmosphere. Parasite growth was assessed using the SYBR Green I based assay.
IC50 were determined using Graphpad Prism 6 software. Dihydroartemisinin (starting concentration 50nM) and DMSO were used as positive and negative controls.

Strain 5150 = experiment: Inhibition of proliferation of multi-resistant field isolates, asynchronous asexual stages, SYBR-green assay; type: cell-based, P. falciparum; conditions: Plasmodium falciparum; 72h; Cambodian isolate resistant to Chloroquine and Pyrimethamine; mean of three replicates; read-out: IC50 nM Strain 5150 mean*
Method: (§1) Compounds 63 and 84 were evaluated regarding the inhibition of the proliferation of multi-resistant field isolates adapted to culture. A panel of four Cambodian strains bearing different molecular markers of resistance were selected: 3D7: Laboratory strain, drug-sensitive, 5150: Cambodian isolate resistant to Chloroquine and Pyrimethamine, 6591: Cambodian isolate resistant to Chloroquine, Pyrimethamine, 5248: Cambodian isolate resistant to Chloroquine, Pyrimethamine, Mefloquine and Artemisinin, 6320: Cambodian isolate resistant to Chloroquine, Pyrimethamine, Piperaquine and Artemisinin.
(§2) IC50 were obtained against asynchronous asexual stages using SYBR-green assay after 72h of incubation with a serial dilution of the compounds. Data represents the mean and SD of 3 independent experiments ran in triplicates. Table 2 illustrates mean IC50 values and their standard deviation in nanomolar.

Strain 5248 = experiment: as above; type: cell-based, P. falciparum; conditions: Plasmodium falciparum; 72h; Cambodian isolate resistant to Chloroquine, Pyrimethamine, Mefloquine and Artemisinin; mean of three replicates; read-out: IC50 nM Strain 5248 mean*
Method: as §1, §2

Strain 6320 = experiment: as above; type: cell-based, P. falciparum; conditions: Plasmodium falciparum; 72h; Cambodian isolate resistant to Chloroquine, Pyrimethamine, Piperaquine and Artemisinin; mean of three replicates; read-out: IC50 nM Strain 6320 mean*
Method: as §1, §2

Strain 6591 = experiment: as above; type: cell-based, P. falciparum; conditions: Plasmodium falciparum; 72h; Cambodian isolate resistant to Chloroquine, Pyrimethamine; mean of three replicates; read-out: IC50 nM Strain 6591 mean*
Method: as §1, §2

Lab. Strain 3D7 = experiment: Inhibition of proliferation, asynchronous asexual stages, SYBR-green assay, laboratory strain; type: cell-based, P. falciparum; conditions: Plasmodium falciparum, 3D7; 72h; laboratory strain, drug-sensitive; mean of three replicates; read-out: IC50 nM Lab. Strain 3D7 mean*
Method: as §1, §2

asexual NF54 parasites = experiment: Stage-specificity during the asexual cell cycle (6h treatment windows, Giemsa smears); type: cell-based, P. falciparum
Method: To assess stage specificity of compounds of the invention, asexual NF54 parasites were tightly synchronized (0 to 3h post-invasion) using gelatin flotation and 5% D-sorbitol-treatment 3h later. […] Following the 6h-treatment, the corresponding cells were pelleted, washed with 10ml RPMI, and put back into culture in 500uL of complete media in a new plate. Parasitemia was assessed at 72 hours post-synchronization using giemsa-stained thin blood smears. Percentage of survival was calculated in comparison to a DMSO-treated control. The data were obtained in three independent experiments.

[2] = system: artemisinin-resistant parasites (strains 5150, 6591, 5248 and 6320); experiment: Ring-stage Survival Assay (RSA); type: cell-based, P. falciparum; conditions: 0-3h rings
Method: Since compounds of the invention are active on early ring stage as shown by the experiments on the cell cycle, their ability to kill artemisinin-resistant parasites in the ring-stage survival assay was tested (strains 5150, 6591, 5248 and 6320, Figure 2).
0-3h synchronized ring-stage parasites were exposed to a treatment of 6h with either DMSO, 700nM dihydroartemisinin (DHA), three times the IC50 value of the compound to test or 700nM DHA in combination with three times the IC50 value of the compound to test. Parasitemia was assessed at 72 hours post-synchronization using giemsa-stained thin blood smears. Percentage of survival was calculated in comparison to a DMSO-treated control. The data were obtained in three independent experiments.

Parasites = experiment: Parasite reduction rate (time needed to kill the parasites); type: cell-based; conditions: survival curves, duration of treatment versus log viable parasites, Figure 3
Method: Parasites are incubated (see for example Sanz et al. PLoS ONE 7, e30949 (2012)) with a compound of the invention (or a reference) for different time-windows, washed, and diluted serially in 96-well plates in fresh red blood cells. Parasites are kept in culture for 3 to 4 weeks, when growth is assessed to evaluate the number of parasites that survive-correlated to the number of wells where growth is found. Survival curves are obtained by plotting the duration of treatment versus the log of the number of viable parasites (figure 3).

[3] = system: P. berghei ANKA strain GFP-expressing parasites; experiment: In vivo activity, Peters 4-day suppressive test; conditions: C57BL/6 mice, 10mg/kg i.p. daily for four days
Method: In vivo activity was determined as previously described (Malmquist et al. Antimicrob. Agents Chemother. 2015, 59 (2), 950-959) following the Peters 4-day suppressive test (Peters, Ann. Trop. Med. Parasitol. 1975, 69 (2), 155-171), with slight modifications. C57BL/6 mice were infected intraperitoneally (i.p.) with 10^5 P. berghei ANKA strain GFP-expressing parasites (Ishino et al. Cell. Mol. Microbiol. 2006, 59 (4), 1175-1184). Two hours post-infection, mice were treated i.p. with a daily regimen of 10mg/kg of compound 84, or 25mg/kg of chloroquine, or the equivalent vehicle control (distillated water) for four days. Parasitemia was quantified from blood samples collected every day by flow cytometry of 50,000 RBCs and confirmed by Giemsa-stained blood smears.

`COc1cc2c3c4c1Oc1cc5c(cc1O4)C(Cc1ccc(OCCCN(C)C)c(c1)Oc1ccc(cc1)CC3N(C)CC2)N(C)CC5` (stereo not drawn) [Compound 84] gave an IC50 ([1]; NF54, 72h) of 137 nM, an IC50 ([1]; Plasmodium falciparum, NF54, 72 h) of 130 ± 35 nM and an activity at 5 µM ([1]; Plasmodium falciparum, first screen at 5µM in duplicate, 72h, NF54, read-out: % survival @5uM) of 14.9%. It also gave an IC50 (Strain 5150) of 251 nM, an IC50 (Strain 5248) of 346 nM and an IC50 (Strain 6320) of 183 nM. For the same compound, the IC50 (Strain 6591) was 167 nM, the IC50 (Lab. Strain 3D7) was 136 nM and the “Stage-specificity (survival after 6h treatment windows across the 48h cycle)” value (asexual NF54 parasites; synchronized NF54, 6h treatment, parasitemia at 72 hours post-synchronization, Figure 1) was “active throughout the 48h cycle with an increased efficiency between 12 and 42h post-invasion”. The “Concentration from which the compound is active (stage-specificity assay)” value (asexual NF54 parasites; tested at one, two and three times the IC50 value) was “active starting from the concentration corresponding to 3 times the IC50 value”, the “Killing of resistant rings (RSA), compound alone” value ([2]; 6h treatment with three times the IC50 value, Figure 2) was “kills resistant rings using three times the IC50 value in a similar manner whichever the strain considered” and the “Killing of parasites (RSA), in combination with DHA” value ([2]; 6h treatment, three times the IC50 value plus 700nM DHA) was “able to kill the parasites of all the tested strains in combination with 700nM dihydroartemisinin (DHA)”. For the same compound, the “Speed of action (parasite reduction rate)” value (Parasites) was “act as fast as dihydroartemisinin (DHA)”, the Severe malaria symptoms [3] was “do not develop severe malaria symptoms” and the Survival after inoculation [3] was 16 days.
